From patent US20040115249A1, “Ionic compounds of quaternary ammonium cations with anions of preservation acids, preparation thereof, and use thereof for preservation” (priority 2002, published 2004)

Tested on: microorganisms from different sectors (molds, yeasts, bacteria)
Excerpt: The product obtained in example 2 was used in a test of antimicrobial activity.

## n-alkyldimethylethylbenzylammonium Sorbate [Example 2]
  minimum inhibitory concentrations: Very low
